Measurements reported in patent US5504104A, “Tricyclic pyrone derivatives as protease inhibitors and antiviral agents” (Warner-Lambert Company, priority 1993, dated 1996).
pIC50: −log10 of the molar value.

Assays:
HIV-1 Protease = biological target: T1, HIV-1 Protease (Human immunodeficiency virus type 1 group M subtype B, UniProt P04585); test: HIV Protease Inhibition Assay (HPLC of undecapeptide substrate hydrolysis); format: biochemical; conditions: 40 μM substrate, 37° C., 5 minutes, pH 4.7, 2% DMSO; read-out: 50% INHIBITION CONCENTRATION
T1 construct: HIV-1 Protease: The enzyme is obtained from Bachem Bioscience Inc; purchased Bachem Bioscience Inc
Experimental: The biological activity of the subject compounds was determined in an HIV Protease Inhibition Assay.
DTT Buffer: 1.0 mM dithiothreitol (DTT) was prepared fresh daily in 0.1% polyethylene glycol (mw 8000) 80 mM NaOAc, 160 mM NaCl, 1.0 mM EDTA, and brought to pH 4.7 with HCl.
HIV-1 Protease: The enzyme is obtained from Bachem Bioscience Inc. The undiluted enzyme is thawed from -80° C. and diluted 50-fold with DTT buffer. The solution is always kept at 0° C. on ice water and used in the experiment within 20 minutes after thawing.
Ensyme Substrates: Substrate III from Bachem Bioscience Inc. is the undecapeptide H-His-Lys-Ala-Arg-Val-Leu-p-Nitrophenylalanine-Glu-Ala-Norleucine-Ser-NH2 (>97% purity). A 200 μM stock solution in DTT buffer is prepared and stored on ice. Substrate solution is prepared fresh daily.
Test Compound: 10 mM inhibitor (I) in dimethyl sulfoxide (DMSO) is diluted to 200 μM with DTT buffer. From the 200 μM stock solution is made a 10 μM stock solution with 2% DMSO in DTT buffer. The two inhibitor solutions are used to make final I!=100, 50, 20, 10, 5, 2, 1, 0.5 and 0 μM with 2% DMSO in DTT buffer in each reaction well (total inhibitor volume of 50 μl).
To each reaction well is added 20 μl of substrate (final concentration of 40 μM), 50 μl of inhibitor (at a concentration such that final dilution will produce the test concentration) and 20 μl of DTT buffer. The reaction plate (96 wells) is incubated at 37° C. for at least 5 minutes.
10 μl of the diluted protease is added to the reaction well while the reaction plate is shaking. Once shaken for 10 seconds, the plate is returned to the heating block at 37° C. (final reaction volume 100 μl.)
The reaction is incubated for 5 minutes at 37° C. The reaction is stopped by placing the reaction plate on the shaker and adding 20 μl of 10% trifluoroacetic acid (TFA) and shaking for 10 seconds. The amount of proteolysis is then determined by separation of noncleaved substrate and two cleaved products with reverse-phase HPLC, while measuring absorbance at 220 nm to determine the relative peak areas of the three components. The relative peak areas are used to calculate % conversion to product as a function of inhibitor concentration. The data is plotted as % Control (the ratio of % conversion is the presence and absence of inhibitor×100) versus inhibitor concentration and fit with the equation Y=100/1+(X/IC50)^A, where IC50 is the inhibitor concentration at 50% inhibition and A is the slope of the inhibition curve.

HIV = conditions: cell-free and cell-mediated; literature; cited from earlier work

Compound	pIC50 (HIV-1 Protease)	inhibiting HIV infection (HIV)
O=c1oc2c(c(O)c1SCc1ccccc1)CCc1cc(O)ccc1-2 [Example 9, 5,6-Dihydro-4,8-dihydroxy-3-(phenylmethyl)thio! -2H-naphtho 1,2-b !pyran-2-one]	5.60	
O=c1oc2c(c(O)c1SCc1ccccc1)CSc1ccccc1-2 [Example 25, 4-Hydroxy-3-(phenylmethyl)thio!-2H,5H-1!bensothiopyrano 4,3-b!pyran-2-one]	5.89	
O=c1oc2c(c(O)c1SCc1ccccc1)Cc1ccc(O)cc1-2 [Example 3, 4,8-Dihydroxy-3-(phenylmethyl)thio!-indeno 1,2-b!pyran-2(5H)-one]	6.15	
O=c1oc2c(c(O)c1SCc1ccccc1)COc1ccccc1-2 [Example 14, 4-Hydroxy-3-(phenylmethyl)thio!-2H,5H-pyrano 3,2-c! 1!bensopyran-2-one]	5.40	
Cc1cc(C)c2c(c1)-c1oc(=O)c(SCc3ccccc3)c(O)c1CC2 [Example 6, 5,6-Dihydro-4-hydroxy-7,9-dimethyl-3-(phenylmethyl)thio!-2H-naphtho 1,2-b! pyran-2-one]	5.70	
O=C(O)COc1ccc2c(c1)-c1oc(=O)c(SCc3ccccc3)c(O)c1C2 [Example 29, 2,5-Dihydro-4-hydroxy-2-oxo-3-(phenylmethyl)thio!indeno 1,2-b!pyran-8 !oxy!-acetic acid]	5.85	
O=c1oc2c(c(O)c1SCc1ccccc1)Cc1ccc(OCc3ccccc3)cc1-2 [Example 11, 4-Hydroxy-8-(phenylmethoxy)-3-(phenylmethyl)thio!indeno 1,2-b!pyran-2(5H)-one]	5.66	
O=c1oc2c(c(O)c1SCc1ccccc1)CCc1ccccc1-2 [Example 4, 5,6-Dihydro-4-hydroxy-3-(phenylmethyl)thio!-2H-naphtho 1,2-b!pyran-2-one]	5.85	
O=c1oc2c(c(O)c1SCCc1ccccc1)Cc1ccccc1-2 [Example 16, 4-Hydroxy-3-(2-phenylethyl)thio!indeno 1,2-b!pyran-2(5H)-one]	5.46	
O=c1oc2c(c(O)c1SCc1ccccc1)Cc1ccccc1-2 [Example 1, 4-Hydroxy-3-(phenylmethyl)thio!-indeno 1,2-b!pyran-2(5H)-one]	5.89	
CC(=O)CC(c1ccccc1)c1c(O)c2ccccc2oc1=O (stereo not drawn) [Warfarin, 3-(α-acetonylbenzyl)-4-hydroxycoumarin]		inhibiting cell-free and cell-mediated HIV infection
